Assay results from patent US8658690B2, “Use of novel compounds from fruiting body of Antrodia camphorata for treating an inflammatory disorder” (Well Shine Biotechnology Development Co., Ltd., priority 2008, dated 2014).
≈ marks a conversion by molar mass, not a printed value.

Assays:
Format in all cases: cell-based, murine
TNF-α [1] = experiment: TNF-α secretion in LPS-stimulated RAW264.7 cells, ELISA; details: 50 ng/mL LPS 48 hours, LPS control 3.81 ± 0.93
Description: (§1) The cytokine levels in culture supernatants were measured by sandwich ELISA methods as described by Chen and Lin (Chen, M. L. et al., Int. Arch. Allergy Immunol. 2007, 143, 21-30). More specifically, the anti-cytokine antibodies (PharMingen, San Diego, Calif.) were coated in the 96-well plates (Nunc, Roskilde, Denmark) after overnight incubation at 4° C. and having been blocked with 1% BSA PBS buffer for 30 min. The samples and standards (recombinant mouse cytokines, PharMingen) were added to the 96-well plates for 2 hours incubation. The biotin-conjugated antibodies (biotinylated rat anti-mouse cytokine monoclonal antibodies, PharMingen) were added and incubated. After washing, streptavidin-conjugated peroxidase was added for 1 hour. The substrates, 2,2′-azino-bis-3-ethyl-benzthiazoline-6-sulfonic acid (ABTS, Sigma), were added to each well for 20 min. The plates were read in a microplate autoreader (Microplate autoreader; Bio-Tek Instruments, Winooski, Vt.) at 405 nm.
(§2) IL-6, a proinflammatory cytokine which is a useful marker of infection, is secreted by macrophages in many infectious and inflammatory states, including cardiac surgery, cardiogenic shock, coronary bypass and bacteria sepsis (Kantar, M. et al., Eur. J. Pediatr. 2000, 159, 156-157). Serum concentration of IL-6 has been reported to correlate with disease severity (Pathan, N. et al., Lancet 2004, 363, 203-209). The productions of IL-6 from LPS-stimulated macrophages were measured to evaluate the anti-inflammation effect of the compounds. The cells were pretreated with compounds isolated from A. camphorata for 30 min and then stimulated with 50 ng/mL LPS for 48 hours. The supernatants were collected for TNF-α and IL-6 assay, and the cells were collected for viability analysis by MTT method.

[2] = tested on: RAW264.7 macrophage cells; experiment: Cell viability by MTT method in RAW264.7 cells treated with compounds for 48 hours (no LPS); details: RAW264.7, no LPS, mean ± SD
Description: (§3) To evaluate the immunomodulatory effects of these new compounds, the in vitro production of cytokines in RA W264.7 cells were treated without or with the compounds of the invention at different concentrations for 48 hours. The supernatants were collected for TNF-α assay, and cells were collected for viability analysis by MTT method.

TNF-α [3] = experiment: Spontaneous TNF-α secretion by RAW264.7 cells, sandwich ELISA of supernatants; details: spontaneous, 48 hours, control 88 ± 45
Description: as §1, §3

IL-6 = IL-6 secretion in LPS-stimulated RAW264.7 cells, ELISA; details: for IL-6 (pg/mL) secretion: 50 ng/mL LPS 48 hours, LPS control 238 ± 86; for IC50: Mus musculus, LPS-stimulated RAW264.7, 50 ng/mL LPS 48 hours, highest tested concentration 10 μg/mL, read-out: IC50 of IL-6 production
Description: as §1, §2

[4] = tested on: LPS-stimulated RAW264.7 macrophage cells; experiment: Cell viability by MTT method in LPS-stimulated RAW264.7 cells; details: 30 min pretreatment then 50 ng/mL LPS 48 hours
Description: as §2

Compound	TNF-α (ng/mL) secretion (TNF-α [1]; 0.5 μg/mL) [ng/mL]	TNF-α (ng/mL) secretion (TNF-α [1]; 1 μg/mL) [ng/mL]	TNF-α (ng/mL) secretion (TNF-α [1]; 5 μg/mL) [ng/mL]	TNF-α (ng/mL) secretion (TNF-α [1]; 10 μg/mL) [ng/mL]	Cell viability (%) ([2]; 0.5 μg/mL)	Cell viability (%) ([2]; 1 μg/mL)	Cell viability (%) ([2]; 2 μg/mL)	Cell viability (%) ([2]; 5 μg/mL)	Cell viability (%) ([2]; 10 μg/mL)	TNF-α (pg/mL) secretion (TNF-α [3]; 0.5 μg/mL) [pg/mL]	TNF-α (pg/mL) secretion (TNF-α [3]; 1 μg/mL) [pg/mL]	TNF-α (pg/mL) secretion (TNF-α [3]; 2 μg/mL) [pg/mL]	TNF-α (pg/mL) secretion (TNF-α [3]; 5 μg/mL) [pg/mL]	TNF-α (pg/mL) secretion (TNF-α [3]; 10 μg/mL) [pg/mL]	IL-6 (pg/mL) secretion (IL-6; 0.5 μg/mL) [pg/mL]	IL-6 (pg/mL) secretion (IL-6; 1 μg/mL) [pg/mL]	IL-6 (pg/mL) secretion (IL-6; 5 μg/mL) [pg/mL]	IL-6 (pg/mL) secretion (IL-6; 10 μg/mL) [pg/mL]	IC50 (IL-6) [µg/mL]	Cell viability (%) ([4]; 0.5 μg/mL)	also measured
CC(C)CC1=C(c2ccc(O)cc2)C(=O)OC1=O [Compound 5, 3-(4-Hydroxyphenyl)-4-isobutylfuran-2,5-dione]	3.44 ± 0.31	4.06 ± 1.14	4.67 ± 1.09	3.63 ± 0.58	101 ± 7	102 ± 5	99 ± 6	95 ± 9	86 ± 8	100 ± 26	102 ± 30	90 ± 4	94 ± 19	106 ± 5	221 ± 102	227 ± 94	225 ± 68	215 ± 56	96 (≈ 390 µM)	106 ± 4	Cell viability (%) ([4]; 1 μg/mL): 105 ± 2 %; Cell viability (%) ([4]; 5 μg/mL): 102 ± 2%; Cell viability (%) ([4]; 10 μg/mL): 100 ± 3%
COC(=O)/C(CC(C)C)=C(\C(=O)OC)c1ccc(O)cc1 [Compound 6, Dimethyl 2-(4-hydroxyphenyl)-3-isobutylmaleate]	3.61 ± 0.22	3.70 ± 0.50	3.80 ± 0.53	3.32 ± 0.30	100 ± 6	99 ± 7	102 ± 6	95 ± 8	96 ± 11	100 ± 34	114 ± 41	90 ± 14	110 ± 22	116 ± 4	235 ± 106	215 ± 89	209 ± 89	179 ± 91	25 (≈ 85.5 µM)	108 ± 6	Cell viability (%) ([4]; 1 μg/mL): 107 ± 7%; Cell viability (%) ([4]; 5 μg/mL): 106 ± 9%; Cell viability (%) ([4]; 10 μg/mL): 102 ± 10%
